Laboratory results as given in patent publication US20250388583A1, “COMPOUNDS AND METHOD FOR PKMYT1 INHIBITION” (Engine Biosciences Pte. Ltd., priority 2022, published 2025).

Biological target: PKMYT1 (Homo sapiens (Human), UniProt Q99640)
Assay: In vitro assay: kinase binding to immobilized ligand, captured kinase measured by qPCR

PKMYT1, sequence (Q99640 whole entry): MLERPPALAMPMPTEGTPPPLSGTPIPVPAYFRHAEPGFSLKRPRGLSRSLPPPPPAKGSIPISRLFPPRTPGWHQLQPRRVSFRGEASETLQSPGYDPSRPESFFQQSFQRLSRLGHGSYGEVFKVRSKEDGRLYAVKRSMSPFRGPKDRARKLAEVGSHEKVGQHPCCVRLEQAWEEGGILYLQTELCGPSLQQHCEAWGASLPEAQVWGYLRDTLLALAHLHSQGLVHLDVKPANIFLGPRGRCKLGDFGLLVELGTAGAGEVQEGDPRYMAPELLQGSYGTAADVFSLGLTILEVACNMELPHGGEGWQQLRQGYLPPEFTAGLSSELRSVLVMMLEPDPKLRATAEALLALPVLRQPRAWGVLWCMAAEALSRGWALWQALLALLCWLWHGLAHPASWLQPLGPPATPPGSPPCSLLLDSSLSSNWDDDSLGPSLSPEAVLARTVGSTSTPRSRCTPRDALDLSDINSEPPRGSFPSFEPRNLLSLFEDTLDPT

| IC50 | SMILES |
| --- | --- |
| < 50 nM | Cc1ccc(O)c(C)c1-n1c(N)c(C(N)=O)c2cnc(NCCO)nc21 (atropisomer, axis not shown) [Compound 588, 6-amino-7-(3-hydroxy-2,6-dimethylphenyl)-2-((2-hydroxyethyl)amino)-7H-pyrrolo[2,3-d]pyrimidine-5-carboxamide] |
| 50 to 100 nM | Cc1ccc(O)c(C)c1-n1c(N)c(C(N)=O)c2cnc(N[C@@H]3CCC[C@@H]3O)nc21 (atropisomer, axis not shown) [Compound 591] |
| < 50 nM | Cc1ncc2c(C(N)=O)c(N)n(-c3c(C)c(O)cc(F)c3C)c2n1 (atropisomer, axis not shown) [Compound 606, 6-amino-7-(3-fluoro-5-hydroxy-2,6-dimethyl-phenyl)-2-methyl-pyrrolo[2,3-d]pyrimidine-5-carboxamide] |
| > 1000 nM | Cc1ncc2c(C(N)=O)c(N)n(-c3c(C)c(O)cc(F)c3C)c2n1 (atropisomer, axis not shown) [Compound 607, 6-amino-7-(3-fluoro-5-hydroxy-2,6-dimethyl-phenyl)-2-methyl-pyrrolo[2,3-d]pyrimidine-5-carboxamide] |
| < 50 nM | Cc1ccc(O)c(C)c1-n1c(N)c(C(N)=O)c2cncc(F)c21 (atropisomer, axis not shown) [Compound 624, 2-amino-7-fluoro-1-(3-hydroxy-2,6-dimethyl-phenyl)pyrrolo[3,2-c]pyridine-3-carboxamide] |
| < 50 nM | Cc1c(O)cc(F)c(C)c1-n1c(N)c(C(N)=O)c2cnc(C3CC3)nc21 (atropisomer, axis not shown) [Compound 656] |
| 100 to 1000 nM | Cc1ccc(O)c(C)c1-n1c(N)c(C(N)=O)c2cncnc21 (single isomer, unassigned) [Compound 571, 6-amino-7-(3-hydroxy-2,6-dimethylphenyl)-7H-pyrrolo[2,3-d]pyrimidine-5-carboxamide] |
| > 1000 nM | Cc1ccc(O)c(C)c1-n1c(N)c(C(N)=O)c2cnc(NCCO)nc21 (single isomer, unassigned) [Compound 585, 6-amino-7-(3-hydroxy-2,6-dimethylphenyl)-2-((2-hydroxyethyl)amino)-7H-pyrrolo[2,3-d]pyrimidine-5-carboxamide] |
| > 1000 nM | Cc1cc2c(c(C)c1-n1c(N)c(C(N)=O)c3cc(Cl)cnc31)OCO2 [Compound 546, 2-amino-5-chloro-1-(4,6-dimethylbenzo[d][1,3]dioxol-5-yl)-1H-pyrrolo[2,3-b]pyridine-3-carboxamide] |
| 100 to 1000 nM | Cc1ccc(O)c(C)c1-c1c(N)c(C(N)=O)c2nccc(C)n12 [Compound 548, 7-amino-6-(3-hydroxy-2,6-dimethyl-phenyl)-4-methyl-pyrrolo[1,2-a]pyrimidine-8-carboxamide] |
| 100 to 1000 nM | Cc1ccn2c(-c3c(C)ccc(O)c3C)c(N)c(C(N)=O)c2n1 [Compound 550, 7-amino-6-(3-hydroxy-2,6-dimethyl-phenyl)-2-methyl-pyrrolo[1,2-a]pyrimidine-8-carboxamide] |
| 100 to 1000 nM | Cc1ccn2c(-c3c(C)ccc(O)c3C)c(N)c(C(N)=O)c2c1 [Compound 552, 2-amino-3-(3-hydroxy-2,6-dimethylphenyl)-7-methylindolizine-1-carboxamide] |
| 100 to 1000 nM | Cc1cnc2c(c1)c(C(N)=O)c(N)n2-c1c(C)ccc2ocnc12 [Compound 553, 2-amino-5-methyl-1-(5-methylbenzo[d]oxazol-4-yl)-1H-pyrrolo[2,3-b]pyridine-3-carboxamide] |
| < 50 nM | Cc1cn2c(C(N)=O)c(N)c(-c3c(C)ccc(O)c3C)c2cn1 [Compound 555, 7-amino-8-(3-hydroxy-2,6-dimethyl-phenyl)-3-methyl-pyrrolo[1,2-a]pyrazine-6-carboxamide] |
| < 50 nM | Cc1ccc(O)c(C)c1-n1c(N)c(C(N)=O)c2cc3c(nc21)OCCN3C [Compound 568, 7-amino-6-(3-hydroxy-2,6-dimethylphenyl)-1-methyl-1,2,3,6-tetrahydropyrrolo [3′,2′:5,6]pyrido[2,3-b][1,4]oxazine-8-carboxamide] |
| < 50 nM | Cc1ccc(O)c(C)c1-n1c(N)c(C(N)=O)c2cnc(N3CC(O)C3)nc21 [Compound 573] |
| < 50 nM | Cc1ccc(O)c(C)c1-n1c(N)c(C(N)=O)c2cnc(N[C@H]3CCC[C@@H]3O)nc21 [Compound 579, 6-amino-7-(3-hydroxy-2,6-dimethylphenyl)-2-(((1S,2S)-2-hydroxycyclopentyl)amino)-7H-pyrrolo[2,3-d]pyrimidine-5-carboxamide] |

| IC50 | SMILES |
| --- | --- |
| < 50 nM | Cc1ccc(O)c(C)c1-n1c(N)c(C(N)=O)c2cnc(N[C@@H]3CCC[C@H]3O)nc21 [Compound 580, 6-amino-7-(3-hydroxy-2,6-dimethylphenyl)-2-(((1R,2R)-2-hydroxycyclopentyl)amino)-7H-pyrrolo[2,3-d]pyrimidine-5-carboxamide] |
| < 50 nM | Cc1ccc(O)c(C)c1-n1c(N)c(C(N)=O)c2cnc(N3CC[C@H](O)C3)nc21 [Compound 581, 6-amino-7-(3-hydroxy-2,6-dimethyl-phenyl)-2-[(3S)-3-hydroxypyrrolidin-1-yl]pyrrolo[2,3-d]pyrimidine-5-carboxamide] |
| < 50 nM | Cc1ccc(O)c(C)c1-n1c(N)c(C(N)=O)c2c(C)ncc(F)c21 [Compound 582, 2-amino-7-fluoro-1-(3-hydroxy-2,6-dimethyl-phenyl)-4-methyl-pyrrolo[3,2-c]pyridine-3-carboxamide] |
| < 50 nM | Cc1ccc(O)c(C)c1-n1c(N)c(C(N)=O)c2cnc(N3CC[C@@H](O)C3)nc21 [Compound 583, 6-amino-7-(3-hydroxy-2,6-dimethyl-phenyl)-2-[(3R)-3-hydroxypyrrolidin-1-yl]pyrrolo[2,3-d]pyrimidine-5-carboxamide] |
| 100 to 1000 nM | Cc1ccc(O)c(C)c1-n1c(N)c(C(N)=O)c2cnc(NC(=O)[C@H]3CCCN3)nc21 [Compound 584, 6-amino-7-(3-hydroxy-2,6-dimethylphenyl)-2-(pyrrolidine-2-carboxamido)-7H-pyrrolo[2,3-d]pyrimidine-5-carboxamide] |
| < 50 nM | Cc1ccc(O)c(C)c1-n1c(N)c(C(N)=O)c2cncc(C#N)c21 [Compound 587, 2-amino-7-cyano-1-(3-hydroxy-2,6-dimethylphenyl)-1H-pyrrolo[3,2-c]pyridine-3-carboxamide] |
| < 50 nM | Cc1ncc2c(C(N)=O)c(N)n(-c3c(C)c(O)cc(F)c3C)c2n1 [Compound 595, 6-amino-7-(3-fluoro-5-hydroxy-2,6-dimethyl-phenyl)-2-methyl-pyrrolo[2,3-d]pyrimidine-5-carboxamide] |
| < 50 nM | Cc1ccc(O)c(C)c1-n1c(N)c(C(N)=O)c2cnc(C(F)(F)F)nc21 [Compound 608, 6-amino-7-(3-hydroxy-2,6-dimethylphenyl)-2-(trifluoromethyl)-7H-pyrrolo[2,3-d]pyrimidine-5-carboxamide] |
| < 50 nM | CCN(CC)c1ncc2c(C(N)=O)c(N)n(-c3c(C)ccc(O)c3C)c2n1 [Compound 609, 6-amino-2-(diethylamino)-7-(3-hydroxy-2,6-dimethylphenyl)-7H-pyrrolo[2,3-d]pyrimidine-5-carboxamide] |
| < 50 nM | Cc1ccc(O)c(C)c1-n1c(N)c(C(N)=O)c2cnc(Cl)nc21 [Compound 618, 6-amino-2-chloro-7-(3-hydroxy-2,6-dimethylphenyl)-7H-pyrrolo[2,3-d]pyrimidine-5-carboxamide] |
| < 50 nM | Cc1ncc2c(C(N)=O)c(N)n(-c3c(C)c(O)cc(Cl)c3C)c2n1 [Compound 619, 6-amino-7-(3-chloro-5-hydroxy-2,6-dimethylphenyl)-2-methyl-7H-pyrrolo[2,3-d]pyrimidine-5-carboxamide] |
| < 50 nM | Cc1ccc(O)c(C)c1-n1c(N)c(C(N)=O)c2cc3c(nc21)CCN3 [Compound 620] |
| < 50 nM | Cc1ccc(O)c(C)c1-n1c(N)c(C(N)=O)c2cnc(C#CC3CC3)nc21 [Compound 621] |
| 50 to 100 nM | Cc1ccc(O)c(C)c1-n1c(N)c(C(N)=O)c2cnc(C#Cc3ccc(F)cc3)c(F)c21 [Compound 622, 2-amino-7-fluoro-6-((4-fluorophenyl)ethynyl)-1-(3-hydroxy-2,6-dimethylphenyl)-1H-pyrrolo[3,2-c]pyridine-3-carboxamide] |
| < 50 nM | Cc1c(O)cc(F)c(C)c1-n1c(N)c(C(N)=O)c2cnc(C3CC3)c(F)c21 [Compound 623, 2-amino-6-cyclopropyl-7-fluoro-1-(3-fluoro-5-hydroxy-2,6-dimethyl-phenyl)pyrrolo[3,2-c]pyridine-3-carboxamide] |
| < 50 nM | Cc1ccc(O)c(C)c1-n1c(N)c(C(N)=O)c2cnc(S(C)(=O)=O)nc21 [Compound 625, 6-amino-7-(3-hydroxy-2,6-dimethylphenyl)-2-(methylsulfonyl)-7H-pyrrolo[2,3-d]pyrimidine-5-carboxamide] |

Biological target: LCK (Homo sapiens (Human), UniProt P06239)
Assay: as above
Description: Example B-1: In Vitro Assay
Compounds that bind the kinase active site and directly (sterically) or indirectly (allosterically) prevent kinase binding to an immobilized ligand and reduce the amount of kinase captured on the solid support. Screening “hits” were identified by measuring the amount of kinase captured in test versus control samples by using a quantitative, precise and ultra-sensitive qPCR method that detect the associated DNA label. In a similar manner, dissociation constants (Kd's) for test compound-kinase interactions were calculated by measuring the amount of kinase captured on the solid support as a function of the test compound concentration.

LCK, sequence (P06239 whole entry): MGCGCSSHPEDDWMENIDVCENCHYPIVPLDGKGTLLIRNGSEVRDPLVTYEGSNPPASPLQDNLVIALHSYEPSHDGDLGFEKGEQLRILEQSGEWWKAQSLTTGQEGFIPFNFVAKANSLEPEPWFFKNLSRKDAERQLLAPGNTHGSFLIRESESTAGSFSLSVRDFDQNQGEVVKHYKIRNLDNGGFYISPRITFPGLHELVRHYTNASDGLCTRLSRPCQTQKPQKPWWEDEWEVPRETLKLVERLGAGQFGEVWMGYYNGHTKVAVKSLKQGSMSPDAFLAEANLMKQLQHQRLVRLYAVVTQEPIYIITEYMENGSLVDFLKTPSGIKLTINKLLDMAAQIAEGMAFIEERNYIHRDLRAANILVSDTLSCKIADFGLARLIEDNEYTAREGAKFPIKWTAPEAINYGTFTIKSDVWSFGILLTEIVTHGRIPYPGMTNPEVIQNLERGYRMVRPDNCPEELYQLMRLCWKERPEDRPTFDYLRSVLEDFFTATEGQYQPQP

| IC50 | SMILES |
| --- | --- |
| < 50 nM | Cc1ncc2c(C(N)=O)c(N)n(-c3c(C)c(O)cc(F)c3C)c2n1 (atropisomer, axis not shown) [Compound 606, 6-amino-7-(3-fluoro-5-hydroxy-2,6-dimethyl-phenyl)-2-methyl-pyrrolo[2,3-d]pyrimidine-5-carboxamide] |
| > 1000 nM | Cc1ncc2c(C(N)=O)c(N)n(-c3c(C)c(O)cc(F)c3C)c2n1 (atropisomer, axis not shown) [Compound 607, 6-amino-7-(3-fluoro-5-hydroxy-2,6-dimethyl-phenyl)-2-methyl-pyrrolo[2,3-d]pyrimidine-5-carboxamide] |
| < 50 nM | Cc1c(O)cc(F)c(C)c1-n1c(N)c(C(N)=O)c2cnc(C3CC3)c(F)c21 (atropisomer, axis not shown) [Compound 655] |
| < 50 nM | Cc1c(O)cc(F)c(C)c1-n1c(N)c(C(N)=O)c2cnc(C3CC3)nc21 (atropisomer, axis not shown) [Compound 656] |
| < 50 nM | Cc1ncc2c(C(N)=O)c(N)n(-c3c(C)ccc(O)c3C)c2n1 (single isomer, unassigned) [Compound 577, 6-amino-7-(3-hydroxy-2,6-dimethyl-phenyl)-2-methyl-pyrrolo[2,3-d]pyrimidine-5-carboxamide] |
| > 1000 nM | Cc1ncc2c(C(N)=O)c(N)n(-c3c(C)ccc(O)c3C)c2n1 (single isomer, unassigned) [Compound 578, 6-amino-7-(3-hydroxy-2,6-dimethyl-phenyl)-2-methyl-pyrrolo[2,3-d]pyrimidine-5-carboxamide] |
| 100 to 1000 nM | Cc1cc2c(C(N)=O)c(N)n(-c3c(C)ncc(O)c3C)c2nc1C [Compound 560, 2-amino-1-(5-hydroxy-2,4-dimethylpyridin-3-yl)-5,6-dimethyl-1H-pyrrolo[2,3-b]pyridine-3-carboxamide] |
